Columns and labels:
Type in all cases: in vivo, rat
[1] = system: Complete Freund's Adjuvant (CFA) model of hyperalgesia in rats; test: CFA-induced tactile hyperalgesia in rats; details: for activity in CFA model of hyperalgesia: subcutaneous and/or oral delivery
From the text: Complete Freund's Adjuvant (CFA) was used to induce an inflammatory response, resulting in hyperalgesia. This model was chosen as a second experimental paradigm to obtain direct evidence for activity of the compounds against pain states because of its link with the induction of aberrant JNK phosphorylation, and evidence that this signaling cascade appears to, at least in part, mediate the pain response in this model (Doya et al., 2005).
Female Sprague Dawley rats were given either vehicle or Compound 150 (10 mg/kg, sc), 155 (1-10 mg/kg, sc), 157 (1-10 mg/kg, sc; 10-40 mg/kg, po) or 158 (10 mg/kg, sc) 6 hours prior to pain testing (compounds 150, 155, 157, and 158 were dissolved in 20% HPCD at 1-10 mg/mL). Compound 157 was also tested under conditions of repeat dosing where it was given at 5-20 mg/kg, po for five consecutive days. Under all treatment conditions, a single injection of CFA (50 uL) was given into the plantar surface of the right hind paw 1 hour prior to pain testing (i.e., 5 hours after the final administration of compound). Immediately after the CFA injection, animals were placed in testing chambers with a wire mesh bottom to habituate. Standard von Frey filaments were used to assess tactile response thresholds. The left, un-injected paw served as a control. Fibers were applied in the manner described by Dixon (1980) using the up-down method. The 50% withdrawal threshold (in grams) was determined for each paw.

[2] = system: STZ treated diabetic rats; test: Sural nerve myelinated axon morphometry in STZ diabetic rats; details: 5 of 7 days, 2 months of treatment
Description: (§1) Male Sprague-Dawley rats (200-300 g) raised on sawdust covered plastic cages in a room with normal light dark timing and fed with standard rat chow were used for this experiment. The protocol was reviewed and approved by the University of Calgary Animal Care Committee adhering to the guidelines of the Canadian Council on Animal Care (CCAC). Diabetes was induced by a single intraperitoneal injection of streptozotocin (STZ) in citrate buffer (65 mg/kg) with age-matched controls given the buffer without STZ. Animals were used for the study if fasting glucose levels 5-7 days later were ≧16.0 mmol/L (One Touch FasTake strips, Johnson and Johnson).
At endpoint (4 months of diabetes, 2 months of treatment) the rats were euthanized and sural nerves harvested for morphometric studies. Sural nerves were fixed in cacodylate buffered glutaraldehyde, dehydrated with alcohols, fixed in osmium tetroxide then embedded in epon to generate one micron sections, as in previous work (5,6). Sections were photographed under oil immersion (1000×) to sample the entire sural nerve. Images were analyzed using Scion image offline to measure axon area for 100 myelinated axons for each sural nerve fascicle. […] For sural nerves with more than one fascicle, each fascicle underwent separate analysis and a mean axon area was calculated for the rat from the fascicles. […]

[3] = system: STZ treated diabetic rats; test: Motor nerve conduction velocity (MNCV) in STZ diabetic rats, reversal paradigm, 2 months treatment
From the text: (§2) The effects of Compound 150 on nerve conduction (both motor and sensory) and axonal atrophy were examined in diabetic rats. A blinded reversal interventional paradigm was applied to evaluate two related small molecules on established experimental rat diabetic peripheral neuropathy of 2 months duration given over a subsequent 2 months, specifically evaluating motor and sensory conduction and sural axon caliber.
as §1
(§3) Treatments were applied after 2 months of hyperglycemia for a duration of 2 months. Motor conduction recordings (1-3) were made prior to intervention then after […]. Sensory conduction utilized the approach of Parry and Kozu involving stimulation of the digital branches of the sciatic nerve and recording from the sciatic nerve at the level of the popliteal fossa with near nerve temperature maintained at 37° C. (4).
(§4) For statistical analysis, we studied mean values with standard errors of the means and compared values in the interventional groups with one way ANOVA or repeated measures ANOVA and post hoc Student's t-tests.

[4] = system: STZ treated diabetic rats; test: Sensory nerve conduction velocity (SNCV) in STZ diabetic rats, reversal paradigm, 2 months treatment
From the text: as §2, §1, §3, §4

[5] = system: diabetic rats; test: Tactile allodynia (von Frey) in diabetic rats (DN); details: for neuropathic pain in diabetic rats: subcutaneous and/or oral delivery routes; for established neuropathic pain state in diabetic rats: Study 2, 10 mg/kg sc for 14 consecutive days
Description: The effects of compounds 150, 155, 157 and 158 on neuropathic pain responses characterized by tactile allodynia in diabetic rats were examined. A blinded reversal interventional paradigm was applied to evaluate the compounds, with therapy initiated when an aberrant pain state was clearly established. The effects of single or repeat (5 or two days per week) dosing regimen were assessed as described.
Rats (female Sprague Dawley; 250-270 g) were rendered diabetic with the commercially available agent streptozotocin and, were compared to vehicle-treated age matched controls, maintained for up to 6 weeks or more. Standard physiologic parameters (body weight and blood glucose) were recorded before, during and after the study to assess the metabolic status of animals.
Study 1: Both normal and diabetic groups were divided into two groups of 12 and received either vehicle or Compound 150 in 20% HPCD (10 mg/kg, sc) 5 days per week, for two weeks. Standard indices of sensory nerve function (tactile response threshold) were measured at baseline, prior to drug treatments, 48 hours after the 5th dose, and again prior to sacrifice (after the 10th dose) along with the standard physiologic parameters of body weight and plasma glucose.
Study 2: As per Study 1, except animals were treated with either compound 157 or 158 in 20% HPCD (10 mg/kg, sc) for 14 consecutive days.
Study 3: After 1 month of diabetes rats were treated subcutaneously with a single administration of 150, 155, 157, 154, 158 or 160 in 20% HPCD, as indicated; orally by gavage with a single administration of 157, or for 5 consecutive days by oral gavage with 157 and 158 to assess cumulative effects. The effect of the compounds was assessed 6 hours after the single or final administration.
Detailed methods for performing the behavioral tasks can be found in Journal of Neuroscience Methods (1994), 53: 55-63 and Methods in Molecular Medicine, Volume 99: Pain Research: methods and protocols, edited by Z. D. Luo, Humana Press Inc., Totowa, N.J.

[6] = sc, acute single, 6 hours after administration
[7] = po, 5 d loading (5 consecutive days)
[8] = po, 5 d loading (repeated dosing)

Row | SMILES | CFA (effect on tactile hyperalgesia) ([1]; sc, acute single) | activity in CFA model of hyperalgesia [1] | DN, effective dose ([5]; sc, acute single) [mg/kg] | DN (effect on tactile allodynia in diabetic rats) [5, 6] | neuropathic pain in diabetic rats [5] | established neuropathic pain state in diabetic rats [5] | DN (effect on tactile allodynia in diabetic rats) [5, 7] | DN, effective dose [5, 8] [mg/kg] | further results
1 | O=S(=O)([N-][Na+])c1nn2cc(-c3ccc(-c4cccc(C(F)(F)F)c4)cc3)nc2s1 [Compound 150] | attenuated CFA-induced tactile hyperalgesia and +ve | active | 10 | Effects of single administrations were observed and +ve |  |  |  |  | mean area of all measured sural myelinated axons, diabetics given compound vs. vehicle [2]: rise in mean axonal area; mean axonal area of large (greater than 9 microns squared) myelinated axons, diabetics given compound vs. vehicle [2]: significant increase in mean axonal area; MNCV v vehicle treated diabetics at 2 months ([3]; 2×/week): significantly better than vehicle treated diabetics; MNCV change from baseline to 2 months (within diabetic groups) ([3]; 2 days per week): identical effects as the drug given 5 days per week; MNCV, diabetics v normals ([3]; 2 days per week): did not restore MNCV to normal; MNCV change from baseline to 2 months (within diabetic groups) ([3]; 5 days per week): significant improvement in MNCV; MNCV v vehicle treated diabetics at 2 months ([3]; 5 days per week): significantly better than vehicle treated diabetics; MNCV, diabetics v normals ([3]; 5 days per week): did not restore MNCV to normal; SNCV v vehicle treated diabetics at 2 months ([4]; 5 days/week): significantly better than vehicle treated diabetics; SNCV change from baseline to 2 months (within diabetic groups) ([4]; diabetic rats, 2 months of treatment): did not significantly change from baseline; SNCV, diabetics v normals after 2 months of treatment ([4]; dosed 2 days per week): did not confer similar protection; SNCV, diabetics v normals after 2 months of treatment ([4]; dosed 5 days per week): not significantly different from normals; SNCV v vehicle treated diabetics at 2 months ([4]; twice per week): did not afford similar protection; response to tactile stimulation with multiple dosing ([5]; Study 1, diabetic rats, 10 mg/kg sc 5 days per week for two weeks): consistently responding within the normal range; tactile allodynia six hours after the initial treatment ([5]; Study 1, diabetic rats, 10 mg/kg sc in 20% HPCD): tactile allodynia was reversed
2 | O=S(=O)([N-][Na+])c1nn2cc(-c3ccc(Cl)c(Cl)c3Cl)nc2s1 [Compound 154] |  |  |  | Effects of single administrations were observed and +ve | can reverse neuropathic pain |  |  |  | 
3 | O=S(=O)([N-][Na+])c1nn2cc(-c3ccc4c(c3)OCCCO4)nc2s1 [Compound 155] | attenuated CFA-induced tactile hyperalgesia and +ve | active | ≤ 10 | Effects of single administrations were observed and +ve | can reverse neuropathic pain |  |  |  | 
4 | COCCOCCOc1ccc(-c2cn3nc(S(=O)(=O)[N-][Na+])sc3n2)cc1 [Compound 157] | attenuated CFA-induced tactile hyperalgesia and +ve | active | <10 | Effects of single administrations were observed | can reverse neuropathic pain | reversed an established neuropathic pain state | equivalent efficacy was observed and +ve | 5 to 10 | CFA (effect on tactile hyperalgesia) ([1]; po, 5 d loading): +ve; CFA, effective dose ([1]; po, 5 d loading): 5 to 10 mg; CFA (effect on tactile hyperalgesia) ([1]; po, acute single): efficacious and +ve; CFA, effective dose ([1]; po, acute single): 20 to 40 mg/kg; CFA, required dose range ([1]; po, daily dosing for 5 consecutive days): 5 to 10 mg/kg; duration of effect on pain after a single administration ([5]; diabetic rats, single administration): 24 h; DN, effective dose ([5]; po, 5 d loading): 5 to 10 mg; DN, effective dose ([5]; po, acute single): 10 to 20 mg/kg; DN (effect on tactile allodynia in diabetic rats) ([5]; po, acute single, 6 hours after administration): Effects of single administrations were observed and +ve
5 | CC(C)(C)c1ccc(-c2cn3nc(S(=O)(=O)[N-][Na+])sc3n2)cc1 [Compound 158] | attenuated CFA-induced tactile hyperalgesia and +ve | active | ≤ 10 | Effects of single administrations were observed and +ve | can reverse neuropathic pain | reversed an established neuropathic pain state | equivalent efficacy was observed and +ve | 5 to 10 | CFA, effective dose ([1]; sc, acute single): ≤ 10 mg/kg
6 | O=S(=O)([N-][Na+])c1nn2cc(-c3cc(C(F)(F)F)ccc3Cl)nc2s1 [Compound 160] |  |  | 10 | Effects of single administrations were observed and +ve | can reverse neuropathic pain |  |  |  | 

Source: patent US20090170845A1, “USE OF IMIDAZO[2,1-b]-1,3,4-THIADIAZOLE-2-SULFONAMIDE COMPOUNDS TO TREAT NEUROPATHIC PAIN” (AEGERA THERAPEUTICS INC., priority 2006, published 2009)
